Results from patent US4929736A, “Latent isocynate derivatives useful for deactivating enzymes” (Board of Trustees of the Wichita State University, priority 1986, dated 1990).
Entries after “also recorded” stand apart in the source; their conditions may differ. Like-named read-outs stand apart in the source and are kept apart here.

Molecular target: T1, Human leukocyte elastase (HLE) (Homo sapiens, UniProt P08246)
T1 construct: purchased Elastin Products, St. Louis, Mo
T1 sequence (P08246 30-267): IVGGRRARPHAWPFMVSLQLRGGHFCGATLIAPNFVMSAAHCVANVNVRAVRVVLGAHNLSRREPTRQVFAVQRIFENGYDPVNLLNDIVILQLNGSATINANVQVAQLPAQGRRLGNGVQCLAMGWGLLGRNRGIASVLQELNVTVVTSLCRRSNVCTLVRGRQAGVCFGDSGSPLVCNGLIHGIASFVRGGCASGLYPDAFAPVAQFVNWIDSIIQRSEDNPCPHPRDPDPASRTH
Assay: Spectrophotometric assay of HLE inactivation (in vitro)
Assay type: biochemical
Protocol: The appropriate amount of inhibitor in acetonitrile was mixed with PPE in phosphate buffer solution and placed in a constant temperature bath. Aliquots were withdrawn at different time intervals and transferred to a cuvette containing 100 uL of substrate, 140 uL of acetonitrile, and 2 mL of phosphate buffer, pH 6.5. After incubating for 30 seconds, the absorbance change was monitored for two minutes at 347.5 nm. […] Controlled reactions for 100% PPE activity were run in the presence of acetonitrile. A similar procedure was followed for HLE.
The reaction of an irreversible inhibitor with PPE and HLE may be illustrated by the scheme shown below: [drawing 5] where EI is the noncovalently bound enzyme-inactivator complex and E-I is the final product with the inhibitor covalently bound to the enzyme. The kinetics data were analyzed according to known procedures. The apparent pseudo-first-order inactivation rate constants were determined from the slopes of semilogarithmic plots of enzymatic activity remaining versus time using the following equation: [formula] where Et /EO is the amount of active enzyme remaining after time "t".
The assay procedure used was the procedure identified relative to the tests above in Table I.
(kobsd) were determined by plotting in [E]t /[E]o vs time.

[1] = Table V, succinimide derivatives, read-out: kobsd /[I], inhibition of leukocyte elastase
[2] = Table V, succinimide derivatives
[3] = Table III, inactive: no inhibition at 243fold excess of inhibitor over enzyme, 10min incubation
[4] = Table II monopotassium sulfonate salts
[5] = Table VI, sulfur-containing amino acid esters
[6] = Table II monopotassium sulfonate salts, read-out: k2 /Ki (HLE)
[7] = Table VI, sulfur-containing amino acid esters, read-out: kobsd /[I], inhibition of HLE
[8] = Table III, inactive: no inhibition at 243fold excess of inhibitor over enzyme, 10min incubation, read-out: kobsd /[I], inhibition of leukocyte elastase
[9] = Table IV, derivatives of phenylalanine, read-out: kobsd /[I], inhibition of leukocyte elastase

O=C1CC(Cc2ccccc2)C(=O)N1OS(=O)(=O)c1ccccc1 (stereo not drawn)
kinact/KI [1]: 1170 M⁻¹ s⁻¹

O=C1CC(Cc2ccccc2)C(=O)N1OS(=O)(=O)c1ccc(Br)cc1 (stereo not drawn)
kinact/KI [1]: 1650 M⁻¹ s⁻¹

Cc1ccc(S(=O)(=O)ON2C(=O)CC(Cc3ccccc3)C2=O)cc1 (stereo not drawn)
kinact/KI [1]: 1610 M⁻¹ s⁻¹

Cc1ccc(S(=O)(=O)ON2C(=O)CCC2=O)cc1
kobsd /[I], inhibition of leukocyte elastase [2]: inactive

CCCCS(=O)(=O)ON1C(=O)CC(Cc2ccccc2)C1=O (stereo not drawn) [BENZYL, OSO2(CH2)3 CH3]
kinact/KI [1]: 1680 M⁻¹ s⁻¹

CCCCCCCCS(=O)(=O)ON1C(=O)CC(Cc2ccccc2)C1=O (stereo not drawn) [BENZYL, OSO2(CH2)7 CH3]
kinact/KI [1]: 1270 M⁻¹ s⁻¹

CN(C)S(=O)(=O)ON1C(=O)CC(Cc2ccccc2)C1=O (stereo not drawn) [BENZYL, OSO2N(CH3)2]
kinact/KI [1]: 323 M⁻¹ s⁻¹

O=C(Nc1ccccc1)S(=O)(=O)O [Compound 1, Table III]
kobsd /[I], inhibition of leukocyte elastase [3]: inactive

COC(=O)CNC(=O)S(=O)(=O)O [Compound 1, Table II]
Inhibition of HLE (in words): devoid of any inhibitory activity
k2 /Ki (HLE) [4]: inactive

O=C(Nc1cccc(Cl)c1)S(=O)(=O)O [Compound 2, Table III]
kobsd /[I], inhibition of leukocyte elastase [3]: inactive

COC(=O)[C@H](C)NC(=O)S(=O)(=O)O [Compound 2, Table II]
Inhibition of HLE (in words): devoid of any inhibitory activity
k2 /Ki (HLE) [4]: inactive

COC(=O)[C@H](CC[S+](C)[O-])NC(=O)S(=O)(=O)O (stereo partly drawn) [Compound 2, Table VI]
Inhibition of HLE (in words): inactive
kobsd /[I], inhibition of HLE [5]: inactive

O=C(Nc1ccc(Cl)cc1)S(=O)(=O)O [Compound 3, Table III]
kobsd /[I], inhibition of leukocyte elastase [3]: inactive

COC(=O)[C@@H](NC(=O)S(=O)(=O)O)C(C)C [Compound 3, Table II]
kinact/KI [6]: 800 M⁻¹ s⁻¹
Inhibition of HLE (in words) (listed as L-valine sulfonate salt): very potent inhibitors; also recorded: effective inhibitors

O=C(Nc1cccc(F)c1)S(=O)(=O)O [Compound 4, Table III]
kobsd /[I], inhibition of leukocyte elastase [3]: inactive

CC[S+]([O-])C[C@H](NC(=O)S(=O)(=O)O)C(=O)OC (stereo partly drawn) [Compound 4, Table VI]
Inhibition of HLE (in words): inactive
kobsd /[I], inhibition of HLE [5]: inactive

O=C(Nc1ccccc1C(F)(F)F)S(=O)(=O)O [Compound 5, Table III]
kobsd /[I], inhibition of leukocyte elastase [3]: inactive

CCC[C@@H](NC(=O)S(=O)(=O)O)C(=O)OC [Compound 5, Table II]
Inhibition of HLE (in words): no inhibitory activity
k2 /Ki (HLE) [4]: inactive

COC(=O)[C@H](CSC)NC(=O)S(=O)(=O)O [Compound 5, Table VI]
kinact/KI [7]: 1510 M⁻¹ s⁻¹

O=C(Nc1cccc(C(F)(F)F)c1)S(=O)(=O)O [Compound 6, Table III]
kobsd /[I], inhibition of leukocyte elastase [3]: inactive

CCCC[C@H](NC(=O)S(=O)(=O)O)C(=O)OC [Compound 6, Table II]
kinact/KI [6]: 920 M⁻¹ s⁻¹
Inhibition of HLE (in words) (listed as L-norleucine sulfonate salt): very potent inhibitors; also recorded: effective inhibitors

COC(=O)[C@H](CSCc1ccccc1)NC(=O)S(=O)(=O)O [Compound 6, Table VI]
kobsd /[I], inhibition of HLE [5]: inactive

O=C(Nc1ccc(C(F)(F)F)cc1)S(=O)(=O)O [Compound 7, Table III]
kobsd /[I], inhibition of leukocyte elastase [3]: inactive

COC(=O)[C@H](CC(C)C)NC(=O)S(=O)(=O)O [Compound 7, Table II]
kinact/KI [6]: 260 M⁻¹ s⁻¹
Inhibition of HLE (in words) (listed as L-leucine sulfonate salt): also deactivate HLE but were not as effective; also recorded: also inactivate HLE, but not as efficiently; also recorded: effective inhibitors

COC(=O)[C@H](CSSC[C@H](NC(=O)S(=O)(=O)O)C(=O)OC)NC(=O)S(=O)(=O)O [Compound 7, Table VI]
kobsd /[I], inhibition of HLE [5]: inactive

O=C(Nc1cccc(F)c1)n1ccnc1 [Compound 8, Table III]
kobsd /[I], inhibition of leukocyte elastase [3]: inactive

COC(=O)[C@H](CCSC)NC(=O)S(=O)(=O)O [Compound 8, Table II]
kinact/KI [6]: 260 M⁻¹ s⁻¹
Inhibition of HLE (in words) (listed as L-methionine sulfonate salt): also deactivate HLE but were not as effective; also recorded: also inactivate HLE, but not as efficiently; also recorded: effective inhibitors

COC(=O)CSC[C@H](NC(=O)S(=O)(=O)O)C(=O)OC [Compound 8, Table VI]
kinact/KI [7]: 17 M⁻¹ s⁻¹

COC(=O)[C@H](Cc1ccccc1)NC(=O)S(=O)(=O)[O-].[K+] [Compound 9, Table II, N-(Sulfocarbonyl)-L-phenylalanine Methyl Ester, Monopotassium Salt]
kinact/KI [6]: 530 M⁻¹ s⁻¹
Inhibition of HLE (in words) (listed as L-phenylalanine sulfonate salt, Monopotassium Salt): also deactivate HLE but were not as effective; also recorded: also inactivate HLE, but not as efficiently; also recorded: effective inhibitors

O=C(Nc1ccccc1C(F)(F)F)n1ccnc1 [Compound 9, Table III]
kobsd /[I], inhibition of leukocyte elastase [3]: inactive

COC(=O)[C@H](CSC)NC(=O)n1ccnc1 [Compound 9, Table VI]
kinact/KI [7]: 4050 M⁻¹ s⁻¹

O=C(Nc1cccc(C(F)(F)F)c1)n1ccnc1 [Compound 10, Table III]
kobsd /[I], inhibition of leukocyte elastase [3]: inactive

CCSC[C@H](NC(=O)n1ccnc1)C(=O)OC [Compound 10, Table VI]
kinact/KI [7]: 4230 M⁻¹ s⁻¹

O=C(NCc1ccc(C(F)(F)F)cc1)n1ccnc1 [Compound 11, Table III]
kobsd /[I], inhibition of leukocyte elastase [3]: inactive

COC(=O)CSC[C@H](NC(=O)n1ccnc1)C(=O)OC [Compound 11, Table VI]
kinact/KI [7]: 15 M⁻¹ s⁻¹

O=C(NCc1cccc(F)c1)S(=O)(=O)O [Compound 12, Table III]
kobsd /[I], inhibition of leukocyte elastase [3]: inactive

O=C(NCc1cccc(C(F)(F)F)c1)S(=O)(=O)O [Compound 13, Table III]
kobsd /[I], inhibition of leukocyte elastase [3]: inactive

O=C(NCc1cccc(F)c1)n1ccnc1 [Compound 14]
kobsd /[I], inhibition of leukocyte elastase [3]: inactive

O=C(NCc1cccc(C(F)(F)F)c1)n1ccnc1 [Compound 15]
kobsd /[I], inhibition of leukocyte elastase [3]: inactive

O=C(NCCc1ccccc1)S(=O)(=O)O [Compound 16]
kinact/KI [8]: 4 M⁻¹ s⁻¹

O=C(NCCc1cccc(F)c1)S(=O)(=O)O [Compound 17, Table III]
kinact/KI [8]: 18 M⁻¹ s⁻¹

O=C(NCCc1ccccc1)n1ccnc1 [Compound 18]
kinact/KI [8]: 35 M⁻¹ s⁻¹

O=C(NCCc1cccc(F)c1)n1ccnc1 [Compound 19]
kinact/KI [8]: 38 M⁻¹ s⁻¹

O=C(NCCc1cccc(C(F)(F)F)c1)n1ccnc1 [Compound 20]
kinact/KI [8]: 483 M⁻¹ s⁻¹

O=C(NCCc1ccccc1)n1ccccc1=O [Compound 21]
kinact/KI [8]: 500 M⁻¹ s⁻¹

O=C(NCCc1cccc(F)c1)n1ccccc1=O [Compound 22]
kinact/KI [8]: 317 M⁻¹ s⁻¹

O=C(NCCc1cccc(C(F)(F)F)c1)n1ccccc1=O [Compound 23]
kinact/KI [8]: 11700 M⁻¹ s⁻¹

O=C(NCCc1ccccc1)ON1C(=O)CCC1=O [Compound 24]
kinact/KI [8]: 927 M⁻¹ s⁻¹

O=C(NCCc1cccc(F)c1)ON1C(=O)CCC1=O [Compound 25]
kinact/KI [8]: 823 M⁻¹ s⁻¹

O=C(NCCc1cccc(C(F)(F)F)c1)ON1C(=O)CCC1=O [Compound 26]
kinact/KI [8]: 13500 M⁻¹ s⁻¹

COC(=O)[C@H](Cc1ccccc1)NC(=O)S(=O)(=O)O [Compound 27]
kinact/KI [9]: 550 M⁻¹ s⁻¹

COC(=O)[C@H](Cc1ccccc1)NC(=O)n1ccnc1 [Compound 28]
kinact/KI [9]: 2070 M⁻¹ s⁻¹

COC(=O)[C@H](Cc1ccccc1)NC(=O)n1ccccc1=O [Compound 29]
kinact/KI [9]: 2330 M⁻¹ s⁻¹

COC(=O)[C@H](Cc1ccccc1)NC(=O)ON1C(=O)CCC1=O [Compound 30]
kinact/KI [9]: 6640 M⁻¹ s⁻¹

COC(=O)C(Cc1cccc(F)c1)NC(=O)S(=O)(=O)O (stereo not drawn) [Compound 31]
kinact/KI [9]: 57 M⁻¹ s⁻¹

COC(=O)C(Cc1cccc(C(F)(F)F)c1)NC(=O)S(=O)(=O)O (stereo not drawn) [Compound 32]
kinact/KI [9]: 13 M⁻¹ s⁻¹

COC(=O)C(Cc1cccc(F)c1)NC(=O)n1ccnc1 (stereo not drawn) [Compound 33]
kinact/KI [9]: 318 M⁻¹ s⁻¹

COC(=O)C(Cc1cccc(C(F)(F)F)c1)NC(=O)n1ccnc1 (stereo not drawn) [Compound 34]
kinact/KI [9]: 1100 M⁻¹ s⁻¹

CS(=O)(=O)ON1C(=O)CCC1=O [H, OSO2CH3]
kobsd /[I], inhibition of leukocyte elastase [2]: inactive
